# Measurements published in patent US20240400586A1, “HETEROARYL DERIVATIVE PARP INHIBITOR AND USE THEREOF” (HAISCO PHARMACEUTICAL GROUP CO., LTD., priority 2021, published 2024).
# Experiments:
# PARP5A = PARP5A (Homo sapiens (Human), UniProt O95271); assay: PARP5A enzyme activity test; format: biochemical
# Protocol: (§1) PARP2, PARP5A, PARP5B, PARP6, PARP7, PARP14 and PARP15 chemical fluorescence detection kits were purchased from BPS Bioscience. The histone solution in the kit was diluted 5× with 1×PBS, and 25 μL of the diluted histone solution was added to a microwell plate and incubated overnight at 4° C. After the incubation, the plate was washed three times with PBST (0.05% Tween-20). 100 μL of the blocking solution was added to the microwell plate and incubated at 25° C. for 90 minutes. After the incubation, the plate was washed three times with PBST. […] 5 μL of the diluted PARP enzyme was added to the microwell plate, and the reaction system was incubated at 25° C. for 60 minutes.
# (§2) After the incubation, the plate was washed three times with PBST. Streptavidin-HRP was diluted 50× with a blocking solution, and 25 μL of the diluent was added to the microwell plate and incubated at 25° C. for 30 minutes. After the incubation, the plate was washed three times with PBST. ELISA ECL substrate A and substrate B were mixed at a ratio of 1:1 (v/v), 25 μL of the mixture was added to the microwell plate, and the chemiluminescence value was read.
# (§3) Curve fitting was performed by four parameters (log(inhibitor) vs. response—Variable slope) using GraphPad Prism software, and the IC50 value was calculated.
# PARP5B = PARP5B (Homo sapiens (Human), UniProt Q9H2K2); assay: PARP5B enzyme activity test; format: biochemical
# Protocol: as §1, §2, §3
# PARP7 = PARP7 (Homo sapiens (Human), UniProt Q7Z3E1); assay: PARP7 enzyme activity test; format: biochemical
# Sequence of PARP7 (Q7Z3E1 whole entry): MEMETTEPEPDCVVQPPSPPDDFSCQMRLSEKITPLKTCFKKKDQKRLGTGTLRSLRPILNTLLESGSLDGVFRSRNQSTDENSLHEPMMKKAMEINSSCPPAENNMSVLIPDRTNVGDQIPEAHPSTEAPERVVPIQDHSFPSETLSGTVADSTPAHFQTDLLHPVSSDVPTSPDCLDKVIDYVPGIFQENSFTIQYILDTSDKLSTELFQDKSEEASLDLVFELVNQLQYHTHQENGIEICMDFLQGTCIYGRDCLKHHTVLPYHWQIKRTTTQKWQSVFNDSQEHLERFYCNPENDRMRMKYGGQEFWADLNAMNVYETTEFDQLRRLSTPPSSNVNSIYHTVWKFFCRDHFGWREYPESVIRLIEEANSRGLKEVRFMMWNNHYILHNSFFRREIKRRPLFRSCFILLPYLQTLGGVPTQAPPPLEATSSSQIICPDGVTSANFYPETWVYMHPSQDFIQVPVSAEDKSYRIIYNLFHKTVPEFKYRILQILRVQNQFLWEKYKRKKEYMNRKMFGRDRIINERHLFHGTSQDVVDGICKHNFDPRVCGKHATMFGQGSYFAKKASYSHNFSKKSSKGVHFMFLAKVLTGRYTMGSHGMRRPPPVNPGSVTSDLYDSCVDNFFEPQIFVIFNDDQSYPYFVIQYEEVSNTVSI
# Protocol: as §1, §2, §3
# PARP15 = PARP15 (Homo sapiens (Human), UniProt Q460N3); assay: PARP15 enzyme activity test; format: biochemical
# Sequence of PARP15 (Q460N3 whole entry): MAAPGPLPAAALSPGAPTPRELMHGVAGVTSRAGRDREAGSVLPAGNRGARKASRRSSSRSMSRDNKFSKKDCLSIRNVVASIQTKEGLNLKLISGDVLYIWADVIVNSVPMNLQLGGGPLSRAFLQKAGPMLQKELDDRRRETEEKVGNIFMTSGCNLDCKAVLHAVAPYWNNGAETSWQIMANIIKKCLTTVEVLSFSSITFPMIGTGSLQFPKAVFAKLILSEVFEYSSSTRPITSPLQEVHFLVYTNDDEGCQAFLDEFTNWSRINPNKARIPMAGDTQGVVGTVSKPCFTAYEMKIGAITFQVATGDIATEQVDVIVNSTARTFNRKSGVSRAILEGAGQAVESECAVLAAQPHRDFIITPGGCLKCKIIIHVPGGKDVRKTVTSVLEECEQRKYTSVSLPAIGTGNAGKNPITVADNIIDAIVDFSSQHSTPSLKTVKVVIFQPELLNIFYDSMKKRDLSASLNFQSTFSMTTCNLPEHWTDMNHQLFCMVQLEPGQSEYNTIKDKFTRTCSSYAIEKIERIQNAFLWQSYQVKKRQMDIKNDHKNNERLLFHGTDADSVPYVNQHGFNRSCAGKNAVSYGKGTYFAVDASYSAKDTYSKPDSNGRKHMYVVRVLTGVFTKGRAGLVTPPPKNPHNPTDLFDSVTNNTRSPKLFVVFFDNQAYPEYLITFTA
# Protocol: as §1, §2, §3
# [1] = tested on: breast tumor cells MDA-MB-436; assay: MDA-MB-436 cell activity test (CellTiter-Glo, 7 days); format: cell-based; conditions: Homo sapiens, MDA-MB-436, 168 h, 7 days incubation
# Protocol: Breast tumor cells MDA-MB-436 were purchased from ATCC, the culture medium was Leibovitz's L-15+10% FBS, and the cells were cultured in a CO2-free incubator at 37° C. On day 1, the cells in the exponential growth phase were collected, and the cell suspension was adjusted to 4000 cells/135 μL with the culture medium. 135 μL of the cell suspension was added to each well of a 96-well cell culture plate and incubated overnight. On day 2, compounds at different concentrations were added, and the plate was placed in the incubator and incubated for 7 days. After the incubation was completed, according to operation instructions for a CellTiter-Glo kit (Promega, G7573), 75 μL of CTG solution, which was already pre-melted and equilibrated to room temperature, was added to each well, and the mixture was uniformly mixed for 2 min using a microplate shaker. The plate was placed at room temperature for 10 min, and then […] were measured using an Envision2104 plate reader (PerkinElmer). The inhibition rate was calculated using formula (1), where RLUcompound was the readout of the drug treated group, RLUcontrol was the average value of the vehicle control group, and RLUblank was the average value of the cell-free well. The IC50 value was calculated using GraphPad Prism software.
# [2] = tested on: Human breast cancer MDA-MB-231 cells; assay: MDA-MB-231 cell proliferation inhibition test (CellTiter-Glo, 7 days); format: cell-based; conditions: MDA-MB-231, 168 h, 7 days incubation
# Protocol: The cells in the exponential growth phase were collected, and the cell suspension was adjusted to 1500 cells/135 μL with the culture medium. 135 μL of the cell suspension was added to each well of a 96-well cell culture plate and incubated overnight. On day 2, compounds at different concentrations were added, and the plate was placed in the incubator and incubated for 7 days. After the incubation was completed, according to operation instructions for a CellTiter-Glo kit (Promega, Cat #G7573), 75 μL of CTG solution, which was already pre-melted and equilibrated to room temperature, was added to each well, and the mixture was uniformly mixed for 2 min using a microplate shaker. The plate was placed at room temperature for 10 min, and then […] signal values were measured using an Envision 2104 plate reader (PerkinElmer).
# [3] = Pharmacokinetic test in rats; format: in vivo, rat; conditions: male SD rats
# Protocol: • 1.1 Experimental animals: male SD rats, about 220 g, 6-8 weeks old, 6 rats/compound, purchased from Chengdu Ddossy Experimental Animals Co., Ltd. • 1.2 Experimental design: on the day of the test, 6 SD rats were randomly grouped according to their body weight; the animals were fasted with water available for 12 to 14 h one day before the administration, and were fed 4 h after the administration.
# Before and after the administration, 0.15 mL of blood was taken from the orbit of the animals under isoflurane anesthesia and placed in an EDTAK2 centrifuge tube. The blood was centrifuged at 5000 rpm and 4° C. for 10 min to collect plasma. The blood collection time points for the intravenous administration group and intragastric administration group were: 0, 5 min, 15 min, 30 min, 1 h, 2 h, 4 h, 6 h, 8 h, and 24 h. Before analysis and detection, all samples were stored at −80° C. The samples were analyzed quantitatively by LC-MS/MS.
# [4] = tested on: MDA-MB-436 subcutaneous transplanted tumor; assay: Mouse MDA-MB-436 subcutaneous in vivo transplanted tumor model
# Protocol: Human breast cancer MDA-MB-436 cells were placed in Leibovitz's L-15 medium (supplemented with 10 μg/mL insulin, 16 μg/mL glutathione, 10% fetal bovine serum and 1% double antibody) and cultured at 37° C. Conventional digestion treatment with trypsin was carried out twice a week for passage. When the cell saturation was 80%-90%, and the number reached the requirement, the cells were collected, counted, and inoculated. BALB/c nude mice (from Beijing Vital River Laboratory Animal Technology Co., Ltd.) were subcutaneously inoculated with 0.2 mL (10×10^6) of MDA-MB-436 cells (plus matrigel, with the volume ratio of 1:1) on the right back. When the average tumor volume reached about 180 mm^3, grouping and administration were performed (marked as Day 0). […] The administration frequency was once a day, the administration cycle was 29 days, and the drug withdrawal observation period was set to 14 days. After grouping, the tumor diameter was measured twice a week with a vernier caliper. The formula for calculating the tumor volume was: V=0.5×a×b^2, where a and b represented the long and short diameters of the tumor, respectively.
# [5] = Sprague-Dawley (SD), rat, iv, i.v. 2.5 mg/kg, plasma
# Sequence of PARP5A (O95271 1001-1327 limits assumed): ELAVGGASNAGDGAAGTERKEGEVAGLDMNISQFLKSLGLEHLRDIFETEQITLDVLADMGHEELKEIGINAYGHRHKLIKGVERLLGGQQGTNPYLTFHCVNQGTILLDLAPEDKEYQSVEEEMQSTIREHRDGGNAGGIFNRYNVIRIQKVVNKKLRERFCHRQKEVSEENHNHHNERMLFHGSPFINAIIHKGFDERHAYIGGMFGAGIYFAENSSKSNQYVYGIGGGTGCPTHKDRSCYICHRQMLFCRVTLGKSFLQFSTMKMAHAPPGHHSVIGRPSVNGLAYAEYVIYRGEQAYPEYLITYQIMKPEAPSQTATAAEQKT
# Sequence of PARP5B (Q9H2K2 667-1166 limits assumed): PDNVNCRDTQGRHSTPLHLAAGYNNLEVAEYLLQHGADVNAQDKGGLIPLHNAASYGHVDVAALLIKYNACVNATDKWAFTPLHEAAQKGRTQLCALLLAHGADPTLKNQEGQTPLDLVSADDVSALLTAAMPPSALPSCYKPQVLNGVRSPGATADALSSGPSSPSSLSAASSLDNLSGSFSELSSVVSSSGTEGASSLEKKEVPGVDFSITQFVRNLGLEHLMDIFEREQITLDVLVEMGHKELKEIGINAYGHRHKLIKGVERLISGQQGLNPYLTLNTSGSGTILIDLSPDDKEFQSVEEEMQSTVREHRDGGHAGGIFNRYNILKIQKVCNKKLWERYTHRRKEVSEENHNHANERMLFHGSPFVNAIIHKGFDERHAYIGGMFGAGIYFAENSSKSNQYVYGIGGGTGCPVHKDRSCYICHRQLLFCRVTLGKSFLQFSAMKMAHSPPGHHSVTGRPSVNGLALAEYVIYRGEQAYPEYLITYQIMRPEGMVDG
compound,measurement,setting,value
"CCc1cc2ncc(CN3CCN(c4ccc(C(=O)NC5CC5)nc4)CC3)cc2[nH]c1=O [Compound 4, N-cyclopropyl-5-(4-((7-ethyl-6-oxo-5,6-dihydro-1,5-naphthyridin-3-yl)methyl)piperazin-1-yl)picolinamide]",IC50,PARP5A,6.08 µM
same,IC50,PARP5B,576 nM
same,IC50,PARP7,5.36 µM
same,IC50,PARP15,4.3 µM
same,inhibition at 10 µM,"[1]; 10 μM, read-out: MDA-MB-436 Max inh. % 10 μM",89.4%
same,IC50,[1]; read-out: MDA-MB-436 cell inhibitory activity IC50,2 nM
same,inhibition at 10 µM,"[2]; 10 μM, read-out: MDA-MB-231 Max inh. % 10 μM",66.8%
same,IC50,"[2]; BRCA WT cells, read-out: MDA-MB-231 cell inhibitory activity IC50",15.9 µM
same,AUC(0-t),[3]; [5],46.6 ± 4.75 µg·h/mL
same,clearance,[3]; [5],0.896 ± 0.097 mL/min/kg
same,Vd,"[3]; Sprague-Dawley (SD), rat, iv, i.v. 2.5 mg/kg, plasma, read-out: Vdss",0.236 ± 0.022 L/kg
same,AUC(0-t),"[3]; Sprague-Dawley (SD), rat, po, i.g. 10 mg/kg, plasma",184 ± 72.3 µg·h/mL
same,F,[3]; i.g. 10 mg/kg,98.8 ± 39%
same,tumor growth after the drug withdrawal,[4]; 14 days drug withdrawal observation period,did not grow again
same,body weight of the animals,"[4]; BALB/c nude mice, once a day, Day 0-10: 1 mg/kg, Day 11-28: 0.1 mg/kg",no significant decrease in the body weight
same,TGI,"[4]; BALB/c nude mice, once a day, Day 0-10: 1 mg/kg, Day 11-28: 0.1 mg/kg, after 28 days of administration",119%
